“And” between values parts separate entries of the source, which are not always exact repeats. Equal values may be shown once. Read-outs that look alike come from different tables or passages of the source.

For assay [1], the system named is type L1210 intra-peritoneal lymphoma. In words: Mortality of mice carrying type L1210 intra-peritoneal lymphoma. Particulars: for Ratio % Treated/controls (T/C%): median survival times; for anti-tumour effectiveness (in words): T/C% greater than 125%. In kind it is in vivo. The method, then: Mice carrying a type L1210 intra-peritoneal lymphoma were treated for 7 days in parallel with the following preparations: • SYN857 (A): chlorophosphoenol pyruvate • SYN856 (B): chlorophosphoenol pyruvate and carnitine ester • BCNU: carmustine • Vehicle: control
The weight of the animals for each group as well as the individual weight curves as a function of time were plotted and the mortality of the animals was monitored.
The parameter T/C% is calculated with the ratio of the median survival time of the animals in the group considered to the median survival time of the animals in the control group, all multiplied by 100.

Assay [2] relates to Calu-6. Briefly: Fraction affected (Fa) and synergy index (CI) on lung cell line Calu-6, betaine citrate/metformin. In kind it is cell-based. The text has this:
The cell line adopted for carrying out the experiment is the line Calu-6.
These Fa values are used in the calculation of the synergy index (CI) which makes it possible to report the presence or absence of synergy between the products.

The test system of another assay is NCI-H460. In words: Growth inhibition of NCI-H460 cells, products alone (IC50) and in combination (CI, Chou and Talalay). In kind it is cell-based. Particulars: Avandia alone. The method, then:
(§1) 1) Prior determination of the IC50 of the products taken in isolation on the cell lines.
(§2) Different concentration ratios were established, which were tested on the different cell lines.
(§3) For each cell line three tests were carried out.

For assay [3], the system named is Calu-6. Briefly: Growth inhibition of Calu-6 cells, products alone (IC50) and in combination (CI, Chou and Talalay). The format is cell-based. Conditions: for IC50 (order of magnitude, in words): the cell lines tested (Calu-6 and NCI-H460). The method, then:
as §1, §2, §3

Where [4] appears, read: product alone at 0.10 mM, three experiments.
Where [5] appears, read: product alone at 0.20 mM, three experiments.
Setting [6] is: product alone at 1.00 mM, three experiments.
Where [7] appears, read: product alone at 2.00 mM, three experiments.
Where [8] appears, read: product alone at 4.00 mM, three experiments.

With chlorophosphoenol pyruvate [SYN857], in assay [1] (70 mg/kg/inj.), the “Average number of days of survival ± SD” value turned out to be 8.78 ± 0.42 days, the “Median value” turned out to be 9 days and the “Ratio % Treated/controls (T/C%)” value is given as above 128.5%. Moreover, in assay [1] (70 mg/kg/inj., out of 10 mice, at 9 days), the “Number of dead mice” value is on record as 9. In addition, in assay [1] (136 mg/kg/inj.), the “Average number of days of survival ± SD” value is reported as 9.00 ± 00.0 days, the “Median value” is given as 9 days and the “Ratio % Treated/controls (T/C%)” value was above 128.5%. Also, the “Number of dead mice” value in assay [1] (136 mg/kg/inj., out of 10 mice, at 9 days) is on record as 4. Further, in assay [1] (L1210 lymphoma mice), the “anti-tumour effectiveness (in words)” value was “anti-tumour effectiveness”.
As for “chlorophosphoenol pyruvate and carnitine ester [SYN856]”, in assay [1] (30 mg/kg/inj.), the “Average number of days of survival ± SD” value was 9.00 ± 0.00 days, the “Median value” came out at 9 days and the “Ratio % Treated/controls (T/C%)” value is above 128.5%. Further, in assay [1] (60 mg/kg/inj.), the “Average number of days of survival ± SD” value worked out at 9.00 ± 0.00 days, the “Median value” was 9 days and the “Ratio % Treated/controls (T/C%)” value is recorded as above 128.5%. In assay [1] (60 mg/kg/inj., out of 10 mice, at 9 days), the “Number of dead mice” value worked out at 6. In addition, in assay [1] (L1210 lymphoma mice), the “effective concentration compared with chlorophosphoenol pyruvate alone (in words)” value is reported as “effective at a lower concentration than chlorophosphoenol pyruvate alone” and the “anti-tumour effectiveness (in words)” value is “anti-tumour effectiveness”.
In the case of `CN(C)C(=N)N=C(N)N` [Met, metformin], the “Average Fa” value was 0.07 and 0.10 with Calu-6 [2]; 0.06 in the assay with Calu-6 [2] (setting [4]); 0.05 in the assay on Calu-6 [2] (setting [5]); 0.21 in the assay with Calu-6 [2] (setting [6]); 0.32 with Calu-6 [2] (setting [7]); 0.41 with Calu-6 [2] (setting [8]). For the same compound, the “Fa Exp 1” value in the assay on Calu-6 [2] (product alone at 0.05 mM) came to 0.03; in the assay with Calu-6 [2] (product alone at 0.10 mM), 0.08; in the assay with Calu-6 [2] (product alone at 0.20 mM), 0.04; with Calu-6 [2] (product alone at 0.25 mM) it was 0.06; with Calu-6 [2] (product alone at 0.50 mM), 0.08; in the assay with Calu-6 [2] (product alone at 1.00 mM) it was 0.18. Also, the “Fa Exp 1” value is 0.03 with Calu-6 [2] (product alone at 2.00 mM) and 0.36 in the assay with Calu-6 [2] (product alone at 4.00 mM). For the same compound, the “Fa Exp 3” value with Calu-6 [2] (product alone at 0.10 mM) was found to be 0.04; with Calu-6 [2] (product alone at 0.20 mM) it was 0.06; in the assay on Calu-6 [2] (product alone at 0.25 mM), 0.08; in the assay with Calu-6 [2] (product alone at 0.50 mM), 0.13; with Calu-6 [2] (product alone at 1.00 mM), 0.25; with Calu-6 [2] (product alone at 2.00 mM), 0.36. Also, in the assay with Calu-6 [2] (product alone at 4.00 mM), the “Fa Exp 3” value came to 0.46. Further, the “Fa Exp 2” value with Calu-6 [2] (product alone at 0.20 mM) came out at 0.04; with Calu-6 [2] (product alone at 0.25 mM) it was 0.06; with Calu-6 [2] (product alone at 0.50 mM), 0.09; with Calu-6 [2] (product alone at 1.00 mM), 0.19; with Calu-6 [2] (product alone at 2.00 mM), 0.31; in the assay on Calu-6 [2] (product alone at 4.00 mM), 0.40.
As to `O=NN(CCCl)C(=O)NCCCl` [BCNU ®, carmustine], the “Ratio % Treated/controls (T/C%)” value in assay [1] (15 mg/kg/inj.) was above 128.5%. For the same compound, the “Number of dead mice” value was 0 in assay [1] (15 mg/kg/inj., positive control) and “still alive” in assay [1] (15 mg/kg/inj., positive control, listed as BCNU).
As a reminder, the IC50 is the concentration needed to halve the response being measured. Consider `CN(CCOc1ccc(CC2SC(=O)NC2=O)cc1)c1ccccn1` (centres unmarked) [Avandia ®, rosiglitazone], for which the IC50 with NCI-H460 turned out to be 8.84 µM; with Calu-6 [3] (Calu-6, Avandia alone) it was 14.1 µM. Moreover, the “IC50 (order of magnitude, in words)” value with Calu-6 [3] is recorded as “of the order of ten micromols”.
As to betaine citrate [Betain citrate], the “IC50 (order of magnitude, in words)” value in the assay with Calu-6 [3] was “of the order of a millimol”. For the same compound, the “Fa Exp 1” value amounted to 0.00 in the assay with Calu-6 [2] (product alone at 0.05 mM); 0.00 in the assay on Calu-6 [2] (product alone at 0.10 mM); 0.12 with Calu-6 [2] (product alone at 0.20 mM); 0.02 with Calu-6 [2] (product alone at 0.25 mM); 0.31 in the assay on Calu-6 [2] (product alone at 0.50 mM); 0.59 in the assay on Calu-6 [2] (product alone at 1.00 mM). For the same compound, the “Fa Exp 1” value in the assay with Calu-6 [2] (product alone at 2.00 mM) turned out to be 0.69; in the assay on Calu-6 [2] (product alone at 4.00 mM) it was 0.77. The “Fa Exp 2” value is reported as 0.02 in the assay on Calu-6 [2] (product alone at 0.10 mM); 0.08 with Calu-6 [2] (product alone at 0.25 mM); 0.15 in the assay with Calu-6 [2] (product alone at 0.50 mM); 0.18 in the assay with Calu-6 [2] (product alone at 1.00 mM); 0.37 with Calu-6 [2] (product alone at 2.00 mM); 0.61 in the assay on Calu-6 [2] (product alone at 4.00 mM). Besides, the “Fa Exp 3” value with Calu-6 [2] (product alone at 0.10 mM) was found to be 0.00; with Calu-6 [2] (product alone at 0.20 mM), 0.00; in the assay with Calu-6 [2] (product alone at 0.25 mM), 0.00; in the assay on Calu-6 [2] (product alone at 0.50 mM) it was 0.26; in the assay on Calu-6 [2] (product alone at 1.00 mM) it was 0.63; in the assay with Calu-6 [2] (product alone at 2.00 mM), 0.77. The “Fa Exp 3” value with Calu-6 [2] (product alone at 4.00 mM) came out at 0.83. For the same compound, the “Average Fa” value stood at 0.02 in the assay on Calu-6 [2] (setting [4]); 0.01 in the assay with Calu-6 [2] (setting [5]); 0.06 in the assay with Calu-6 [2] (product alone at 0.25 mM, three experiments); 0.03 in the assay with Calu-6 [2] (product alone at 0.50 mM, three experiments); 0.24 in the assay with Calu-6 [2] (setting [6]); 0.47 in the assay on Calu-6 [2] (setting [7]). For the same compound, the “Average Fa” value with Calu-6 [2] (setting [8]) stood at 0.61.

Source of the values: US20070280918A1, “Multitherapy Against Cancer” (priority 2004, published 2007).
